Key:
Type in all cases: cell-based
NCI-H23 cells [1] = experiment: Selection of resistant populations, cell growth by cell counting under continuous treatment
Experimental: Cell cultures were performed with non-small cell lung (NSCLC) cancer cell line NCI-H23, a KRAS^G12C mutant cell line (heterozygous mutation). The NCI-H23 cell line was purchased from the ATCC. Cells were grown according to the supplier's instructions and maintained at 37° C. in a humidified atmosphere at 5% CO2. Medium was renewed twice a week and cells were passed when the confluence reached 70-80% depending on cell lines. Each cell line was generally kept in passage for no more than 2 months.
(§1) At least 3 to 6 independent populations were treated for each condition. Drugs were renewed twice a week to maintain a high pressure of resistance selection. Cells were harvested, washed and counted approximately ones a week after staining with 0.4% trypan blue (Sigma Aldrich, Saint-Louis, USA) using an automated cell counter (EVE™-Nanoentek).
Cells were seeded in T75 flasks with 5.10^5 cells per flask and incubated 24 hours at 37° C. before addition of AMG-510 (20 μM) with or without AsiDNA (doses ranging from 100 nM to 2500 nM). AsiDNA was added either concomitantly and continuously with the KRAS^G12C inhibitor or two weeks from the AMG-510 treatment start. At least 3 to 6 independent populations were treated for each condition. Drugs were renewed twice a week to maintain a high pressure of resistance selection. Cells were harvested, washed and counted approximately ones a week after staining with 0.4% trypan blue (Sigma Aldrich, Saint-Louis, USA) using an automated cell counter (EVE™-Nanoentek).

NCI-H23 cells [2] = experiment: βgal staining (senescence detection)
Experimental: Slow cycling/senescent drug-tolerant cells were identified using Senescence detection kit according to the manufacturer instructions (Abcam; ab65351). Briefly, cells were seeded in 12-well culture plates and incubated overnight at 37° C. Cells were then washed twice with PBS, fixed during 10 minutes with 0.5 ml of Fixative solution at room temperature, washed twice with PBS and then stained using 0.5 ml of the Staining solution mix overnight at 37° C. Cells are then analyzed under microscope for development of blue color.

NCI-H23 cells [3] = experiment: Flow cytometry of p16, p21, pPERK and transferrin receptor
Experimental: NCI-H23 were seeded in T25 flasks at 4.105 cells per flask and then treated for 24 h with AsiDNA™ at 100 nM or 5 μM for 24 hours. For intracellular staining (pPERK and CDK p16/CDK p21, mTOR, Bcl-2 staining), cells were washed, then fixed in PBS/70% Ethanol during at least 1 hour at 4° C. Cells were then washed, permeabilized with PBS/0.2% TritonX-100 solution at RT for 30 min, and saturated with PBS/2% Bovine Serum Albumin (BSA) solution at RT for 10 min. Then, cells were washed with PBS and incubated 1 hour with respectively, FITC-conjugated anti pPERK (Biorbyt, UK, 1:120), Alexa647-conjugated anti-CDK p16 (Cell signaling, Danvers Mass., USA, 1:50), Alexa488-conjugated anti-CDK p21 (Cell signaling, Danvers Mass., USA, 1:50), Alexa488-conjugated anti-mTOR (Cell signaling, Danvers Mass., USA, 1:50), Alexa647-conjugated anti-Bcl-2 (Cell signaling, Danvers Mass., USA, 1:50) before flow cytometry analysis (Guava EasyCyte 12H, Luminex, Germany). For cell-surface receptors staining with a PE-conjugated anti-transferrin receptor antibody (Thermofisher, Waltham Mass., USA, 1:20). Stained cells were then washed with PBS and fluorescence intensities were acquired with a Guava EasyCyte 12H flow cytometer (Luminex, Germany). Data were analyzed using FlowJo software (Tree Star, CA, USA), cells were harvested and washed directly after treatment end, and then incubated for 1 hour at 4° C.

MIA PaCa-2 cells = experiment: Selection of resistant populations, cell survival by cell counting; conditions: MIA PaCa-2, continuous 1 μM
Experimental: Cells were grown according to the supplier's instructions and maintained at 37° C. in a humidified atmosphere at 5% CO2. Medium was renewed twice a week and cells were passed when the confluence reached 70-80% depending on cell lines. Each cell line was generally kept in passage for no more than 2 months.
as §1

[4] = AMG-510 (20 μM) induced senescent cells vs parental cell line
[5] = NCI-H23 residual cells under treatment vs parental

Structure (SMILES): C=CC(=O)N1CCN(c2nc(=O)n(-c3c(C)ccnc3C(C)C)c3nc(-c4c(O)cccc4F)c(F)cc23)[C@@H](C)C1 [AMG-510]
- resistance acquired under continuous treatment (NCI-H23 cells [1]; NCI-H23, AMG-510 20 μM or MRTX-849 1 μM alone): de-novo resistance
- time from which cells restarted to divide and entered a proliferative state (NCI-H23 cells [1]; NCI-H23, continuous AMG-510 20 μM alone): two to three
- initial sensitivity of cells to the inhibitor (NCI-H23 cells [1]; NCI-H23, continuous high dose/IC90, two first weeks of treatment): very sensitive
- β-gal positive staining, cells in a senescent state (NCI-H23 cells [2]; NCI-H23, Day 17 of treatment): 50%
- β-gal positive staining, cells in a senescent state (NCI-H23 cells [2]; NCI-H23, Day 27 of treatment): 10%
- β-gal positive staining, cells in a senescent state (NCI-H23 cells [2]; NCI-H23, day 10 of treatment): 90%
- pPERK level (NCI-H23 cells [3]; [4]): increase
- transferrin receptor level (NCI-H23 cells [3]; [4]): increase
- p16 expression (NCI-H23 cells [3]; [5]): increases
- p21 expression (NCI-H23 cells [3]; [5]): increases
- time to emergence of acquired resistance after treatment start (MIA PaCa-2 cells): ~1 month

Source: patent publication US20230235327A1, “A DBAIT MOLECULE IN COMBINATION WITH KRAS INHIBITOR FOR THE TREATMENT OF CANCER” (ONXEO, priority 2020, published 2023)
